{"source": "patent US11707449B2", "about": "“Methods and formulations for treatment of spinobulbar muscular atrophy” (ST. JUDE CHILDREN'S RESEARCH HOSPITAL, INC., priority 2017, dated 2023)", "key": {"AR121Q mice": {"system": "AR121Q mice", "test": "Pilot preclinical trial in AR121Q (SBMA) mice", "assay_type": "in vivo, mouse", "conditions": "male SBMA mice; 50 mg/kg intraperitoneally three times per week, 3 to 8 weeks of age", "protocol": "To determine the efficacy of TA and/or MEPB in a mouse model of SBMA, we first performed a pilot study. Five mice were assigned to each drug treatment group: 50 mg/kg TA, 50 mg/kg MEPB, or vehicle (1% DMSO in corn oil). Drug identities were coded to ensure investigator blinding, and drugs were administered three times per week (Monday, Wednesday, and Friday) by intraperitoneal injection from 3 to 8 weeks of age. At 8 weeks, all mice were sacrificed and tissues were collected for pathologic analysis. To fully characterize the efficacy of MEPB in SBMA mice, a large-scale, multi-dose preclinical trial was performed. A power analysis (Table 1) was performed based on the pilot study data to determine the adequate number of mice required for 80% power. At least 10 mice were assigned to each drug treatment group: 50 mg/kg MEPB, 100 mg/kg MEPB, and vehicle (1% DMSO in corn oil). Drug identities were coded to ensure investigator blinding, and drugs were administered three times per week (Monday, Wednesday, and Friday) by intraperitoneal injections from 4 weeks until 30 weeks of age.\nBody weight, rotarod activity, and grip strength data were collected weekly. Footprint analysis and clasping phenotype were assessed at 7 and 8 weeks of age. Body weight was measured using a standard laboratory scale (Fisher Scientific). Rotarod activity analysis was performed on an accelerating rotarod apparatus (IITC Life Science) using a two-day, weekly protocol. Mice were trained on the first day with one session set at 4 rpm for 5 min. The following day, mice were placed on the apparatus, rotation speed was set to accelerate from 4-40 rpm at a rate of 0.1 rpm/s, and the latency to fall was recorded for four separate trials per mouse. Mice were given a 15-min rest period between each trial. Grip strength was measured using a grip strength meter (Bioseb). Grip strength was measured as grams of force in six repeated measurements for forepaws and hindpaws of each animal. To perform gait/footprint analysis, the forepaws and hindpaws of each animal were dipped in red and blue, respectively, water-soluble, non-toxic paint. The animal was then placed in a 70-cm long tunnel lined on the bottom with Whatman filter paper, the entrance was sealed, and the animal was allowed to walk through one time. Footprints were scanned and analyzed with Image J for stride length and forepaw/hindpaw overlap^41. To determine clasping phenotype, mice were recorded using an Apple iPod camera (iOS version 6.1.6) for approximately 60 seconds and still frames were extracted using ImageJ.\nA separate cohort of five mice per treatment group was generated for pathologic and biochemical analysis. Mice were anesthetized by isoflurane inhalation and transcardially perfused with either PBS for frozen tissue samples or 10% formalin for fixed tissue samples. Selected tissues (brain, spinal cord, gastrocnemius/soleus muscle, testes, and liver) were dissected and either snap-frozen in liquid nitrogen or processed for paraffin embedding/sectioning. Tissue sections were stained with hematoxylin and eosin, toluidine blue, or Gomori trichrome to ascertain overall morphology and pathologic changes. To determine AR staining and colocalization patterns, tissue sections were stained with anti-AR (N20, Santa Cruz), anti-polyQ (5TF1-1C2, EMD Millipore), or anti-ubiquitin (Cell Signaling Technology) antibodies. To quantify type I and type II myofibers, hindlimb tissue sections were stained with myosin heavy chain-slow twitch and myosin heavy chain-fast twitch antibodies (Leica Biosystems), respectively. For the purposes of counting ChAT-positive neurons, three stepped sections separated by 50 μm were analyzed for the cervical, thoracic, and lumbosacral areas of spinal cords. The slides contained three to six tissue sections at each level and were labeled with an anti-ChAT antibody (EMD Millipore). […]"}, "[1]": {"test": "Pharmacokinetics of MEPB and TA in plasma and tissues after a single intraperitoneal injection", "assay_type": "in vivo, male FVB/NJ mice", "conditions": "for bioavailability in muscle, brain, and spinal cord / bioavailability in SBMA-affected tissues: mice", "protocol": "MEPB and TA concentrations in plasma, liver, muscle, testes, brain, and spinal cord of male FVB/NJ mice were measured at multiple time points (5 min to 48 h) after a single intraperitoneal injection of either 100 mg/kg body weight MEPB or 50 mg/kg body weight TA. MEPB or TA and the internal standard (IS) SLV320 (Tocris Biosciences) were extracted from plasma and tissue homogenate samples with methyl tert-butyl ether. A 25-μL aliquot of sample was mixed with 10 μL IS (100 ng/mL). To this, 600 μL methyl tert-butyl ether was added and vortexed for 5 min. After centrifugation at 10,000 rpm for 5 min, the organic layer was then transferred to a glass vial and dried in a CentriVap Console (Labconco) at 35° C. for 25 min. The dried extracts were then reconstituted with 400 μL methanol, and an aliquot of 3 μL was injected onto the chromatographic system. All chemicals were HPLC grade or higher and were obtained from Fisher Scientific (Fair Lawn) unless otherwise specified. Quantitation of MEPB and TA was performed using an API 4000 mass spectrometer (AB SCIEX) equipped with a Prominence Ultra-Fast Liquid Chromatograph (UFLCXR) system (Shimadzu). […] Mass spectrometric analysis was performed with the turbo ion spray in positive ionization mode. All MS data were acquired using Analyst 1.5.2 software and processed using MultiQuant 2.1.1 software (SCIEX).\nFor all matrices (plasma, liver, muscle, testes, brain, and spinal cord), the lower limit of quantification (LLOQ) of MEPB was 2.5 ng/mL with a calibration range of 2.5 ng/mL to 100 ng/mL. However, due to dilution during homogenization, the effective LLOQ was 15 ng/mL for solid tissues. The LLOQ of TA was 5 ng/mL for plasma and 60 ng/mL for tissues. […] The MEPB concentration-time (Ct) data for liver, muscle, testes, brain, and spinal cord were grouped by mouse and analyzed using a two-stage, semiphysiologic, nonlinear mixed effects approach with maximum likelihood expectation maximization in ADAPT 5. The pooled arithmetic mean Ct data were subjected to noncompartmental analysis by tissue using WinNonlin 6.4 (Pharsight, a Cetara Company). All PK parameters were calculated using standard formulae^43. Parameters estimated for all matrices included observed maximum concentration (Cmax), time of Cmax (Tmax), concentration at the last observed time point (Clast), time of Clast (Tlast), and area under the Ct curve (AUC). When applicable, the terminal phase was defined as the three time points at the end of the Ct profile, excluding Cmax, and the elimination rate constant (Kel) was estimated using an unweighted log-linear regression of the terminal phase. The terminal elimination half-life (T½) was estimated as 0.693/Kel, and the AUC from time 0 to infinity ([…]) was estimated as the AUC to the last time point (AUClast)+Clast/Ke. Apparent clearance (CL/F=Dose/AUCinf), and apparent terminal volume of distribution (Vz/F) were also calculated."}, "[2]": {"conditions": "single intraperitoneal injection of 100 mg/kg MEPB or 50 mg/kg TA"}}, "note": "Several values for one entry are separate records, joined by “and”; a condition that tells them apart may be missing. Equal values may be shown once. Read-outs that look alike come from different tables or passages of the source."}
{"smiles": "Cc1ccc(OCCn2c(SCCOc3ccccc3)nc3ccccc32)cc1", "note": "[MEPB, 1-[2-(4-methylphenoxy)ethyl]-2-[(2-phenoxyethyl)sulfanyl]-1H-benzimidazole]", "values": [{"measurement": "body weight", "setting": "AR121Q mice", "value": "significantly improved"}, {"measurement": "gait and hindlimb clasping", "setting": "AR121Q mice", "value": "improved gait and hindlimb clasping"}, {"measurement": "grip strength", "setting": "AR121Q mice", "value": "significantly improved"}, {"measurement": "pathologic appearance of skeletal muscle and spinal cord degeneration", "setting": "AR121Q mice", "value": "qualitatively recovered"}, {"measurement": "rotarod activity", "setting": "AR121Q mice", "value": "significantly improved"}, {"measurement": "survival", "setting": "AR121Q mice", "value": "no significant change in survival"}, {"measurement": "penetration and duration in muscle, spinal cord, and testes", "setting": "[1]; NTG mice, single intraperitoneal injection of 100 mg/kg MEPB or 50 mg/kg TA", "value": "marked penetration and duration"}, {"measurement": "bioavailability in muscle, brain, and spinal cord", "setting": "[1]", "value": "good bioavailability"}, {"measurement": "bioavailability in SBMA-affected tissues", "setting": "[1]; [2]", "value": "sufficient bioavailability"}]}
{"smiles": "Cc1c(Cl)cccc1Nc1ccccc1C(=O)O", "note": "[TA, tolfenamic acid]", "values": [{"measurement": "any measurements of SBMA-associated degeneration", "setting": "AR121Q mice", "value": "did not significantly alter any measurements of SBMA-associated degeneration"}, {"measurement": "Tlast (time of Clast)", "setting": "[1]; TA in brain, single intraperitoneal injection of 50 mg/kg TA", "value": 4, "unit": "h"}, {"measurement": "Tlast (time of Clast)", "setting": "[1]; TA in liver, single intraperitoneal injection of 50 mg/kg TA", "value": 24, "unit": "h"}, {"measurement": "Tlast (time of Clast)", "setting": "[1]; TA in muscle, single intraperitoneal injection of 50 mg/kg TA", "value": 8, "unit": "h"}, {"measurement": "Tlast (time of Clast)", "setting": "[1]; TA in plasma, single intraperitoneal injection of 50 mg/kg TA", "value": 48, "unit": "h"}, {"measurement": "Tlast (time of Clast)", "setting": "[1]; TA in spinal cord, single intraperitoneal injection of 50 mg/kg TA", "value": 4, "unit": "h"}, {"measurement": "Tlast (time of Clast)", "setting": "[1]; TA in testis, single intraperitoneal injection of 50 mg/kg TA", "value": 8, "unit": "h"}, {"measurement": "Cmax", "setting": "[1]; male, FVB/NJ, mouse, ip, TA conc. in brain, single intraperitoneal injection of 50 mg/kg TA", "value": "700 nM and 194 ng/mL"}, {"measurement": "Cmax", "setting": "[1]; male, FVB/NJ, mouse, ip, TA conc. in liver, single intraperitoneal injection of 50 mg/kg TA", "value": "260 µM and 67600 ng/mL"}, {"measurement": "Cmax", "setting": "[1]; male, FVB/NJ, mouse, ip, TA conc. in muscle, single intraperitoneal injection of 50 mg/kg TA", "value": "4.8 µM and 1250 ng/mL"}, {"measurement": "Cmax", "setting": "[1]; male, FVB/NJ, mouse, ip, TA conc. in plasma, single intraperitoneal injection of 50 mg/kg TA", "value": "223 µM and 13400 ng/mL"}, {"measurement": "Cmax", "setting": "[1]; male, FVB/NJ, mouse, ip, TA conc. in spinal cord, single intraperitoneal injection of 50 mg/kg TA", "value": "2.1 µM and 554 ng/mL"}, {"measurement": "Cmax", "setting": "[1]; male, FVB/NJ, mouse, ip, TA conc. in testis, single intraperitoneal injection of 50 mg/kg TA", "value": "11.6 µM and 3030 ng/mL"}, {"measurement": "Tmax", "setting": "[1]; male, FVB/NJ, mouse, ip, TA in brain, single intraperitoneal injection of 50 mg/kg TA", "value": 1, "unit": "h"}, {"measurement": "concentration at 4 hr", "setting": "[1]; male, FVB/NJ, mouse, ip, TA in brain, single intraperitoneal injection of 50 mg/kg TA, read-out: Clast (concentration at the last observed time point)", "value": 66.7, "unit": "ng/mL"}, {"measurement": "Tmax", "setting": "[1]; male, FVB/NJ, mouse, ip, TA in liver, single intraperitoneal injection of 50 mg/kg TA", "value": 1, "unit": "h"}, {"measurement": "concentration at 24 hr", "setting": "[1]; male, FVB/NJ, mouse, ip, TA in liver, single intraperitoneal injection of 50 mg/kg TA, read-out: Clast (concentration at the last observed time point)", "value": 508, "unit": "ng/mL"}, {"measurement": "Tmax", "setting": "[1]; male, FVB/NJ, mouse, ip, TA in muscle, single intraperitoneal injection of 50 mg/kg TA", "value": 1, "unit": "h"}, {"measurement": "concentration at 8 hr", "setting": "[1]; male, FVB/NJ, mouse, ip, TA in muscle, single intraperitoneal injection of 50 mg/kg TA, read-out: Clast (concentration at the last observed time point)", "value": 119, "unit": "ng/mL"}, {"measurement": "Tmax", "setting": "[1]; male, FVB/NJ, mouse, ip, TA in plasma, single intraperitoneal injection of 50 mg/kg TA", "value": 1, "unit": "h"}, {"measurement": "concentration at 48 hr", "setting": "[1]; male, FVB/NJ, mouse, ip, TA in plasma, single intraperitoneal injection of 50 mg/kg TA, read-out: Clast (concentration at the last observed time point)", "value": 19.8, "unit": "ng/mL"}, {"measurement": "Tmax", "setting": "[1]; male, FVB/NJ, mouse, ip, TA in spinal cord, single intraperitoneal injection of 50 mg/kg TA", "value": 1, "unit": "h"}, {"measurement": "concentration at 4 hr", "setting": "[1]; male, FVB/NJ, mouse, ip, TA in spinal cord, single intraperitoneal injection of 50 mg/kg TA, read-out: Clast (concentration at the last observed time point)", "value": 84.6, "unit": "ng/mL"}, {"measurement": "Tmax", "setting": "[1]; male, FVB/NJ, mouse, ip, TA in testis, single intraperitoneal injection of 50 mg/kg TA", "value": 1, "unit": "h"}, {"measurement": "concentration at 8 hr", "setting": "[1]; male, FVB/NJ, mouse, ip, TA in testis, single intraperitoneal injection of 50 mg/kg TA, read-out: Clast (concentration at the last observed time point)", "value": 150, "unit": "ng/mL"}, {"measurement": "bioavailability in muscle, brain, and spinal cord", "setting": "[1]", "value": "poor bioavailability"}, {"measurement": "bioavailability in SBMA-affected tissues", "setting": "[1]; [2]", "value": "poor bioavailability"}]}
